Like-named read-outs stand apart in the source and are kept apart here.
Tests used:
Pim3 kinase = Pim3 kinase (Homo sapiens, UniProt Q86V86); assay: Pim3 ATP depletion assay; assay type: biochemical
Pim1 kinase = Pim1 kinase (Homo sapiens, UniProt P11309); assay: Pim1 ATP depletion assay; assay type: biochemical; conditions: Pim1 ATP depletion assay;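 further: Luciferase-luciferin luminescence readout of residual ATP after PIM1 transfers phosphate to a peptide substrate, 40 µM ATP added, reaction run to roughly half ATP consumption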
Pim2 kinase = Pim2 kinase (Homo sapiens, UniProt Q9P1W9); assay: Pim2 ATP depletion assay; assay type: biochemical;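 further: Luciferase-based luminescent readout of ATP remaining after PIM2 phosphorylates a BAD peptide, final 5 nM enzyme, 4 µM ATP, 10 µM peptide, 2.5% DMSO, run to roughly half ATP consumption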
[1] = biological target: T1, human full length PKCE enzyme (Homo sapiens, UniProt Q02156); assay: In vitro PKCE assay; assay type: biochemical; conditions: 10 nM enzyme, 40 uM peptide substrate, 20 uM ATP, KinaseGlo Plus readout; read-out: PKCε IC50
T1 construct: human full length PKCE enzyme purchased from InVitrogen; purchased InVitrogen
T1 sequence (Q02156 1-737): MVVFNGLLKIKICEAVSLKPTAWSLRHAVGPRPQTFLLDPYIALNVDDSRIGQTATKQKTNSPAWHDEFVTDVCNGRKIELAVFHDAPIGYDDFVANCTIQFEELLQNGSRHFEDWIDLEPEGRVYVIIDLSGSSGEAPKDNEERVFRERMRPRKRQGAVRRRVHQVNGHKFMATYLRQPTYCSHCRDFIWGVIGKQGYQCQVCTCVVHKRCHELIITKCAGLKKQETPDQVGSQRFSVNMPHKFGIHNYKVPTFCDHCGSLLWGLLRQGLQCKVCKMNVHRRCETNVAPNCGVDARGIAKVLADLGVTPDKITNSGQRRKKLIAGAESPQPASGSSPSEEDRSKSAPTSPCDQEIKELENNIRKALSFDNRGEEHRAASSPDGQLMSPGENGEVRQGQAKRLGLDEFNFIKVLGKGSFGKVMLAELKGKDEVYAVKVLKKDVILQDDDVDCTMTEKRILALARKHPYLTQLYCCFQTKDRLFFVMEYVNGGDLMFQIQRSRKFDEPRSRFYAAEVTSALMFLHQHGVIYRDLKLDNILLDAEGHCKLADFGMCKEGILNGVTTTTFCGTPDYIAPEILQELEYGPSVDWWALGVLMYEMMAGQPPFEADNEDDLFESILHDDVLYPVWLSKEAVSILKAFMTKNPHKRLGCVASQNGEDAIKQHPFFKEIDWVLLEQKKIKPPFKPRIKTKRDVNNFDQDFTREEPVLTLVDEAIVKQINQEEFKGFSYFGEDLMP

PC3 cells = assay: Cell proliferation assay (CellTiter-Glo), PC3; assay type: cell-based; conditions: Homo sapiens, PC-3
Description: HEL 92.1.7 cells (ATTC No. TIB-180, an erythroleukemia line derived from malignant peripheral blood), MV4-11 cells (ATCC No. CRL-9591, a human acute monocytic leukemia line) and PC3 cells (ATCC No. CRL-1435, a human prostatic adenocarcinoma line) were cultured in RPMI1640 supplemented with 10% FBS, sodium pyruvate and antibiotics. Cells were plated in the same medium at a density of 1000 cells per well into 96 well tissue culture plates, with outside wells vacant, on the day of assay.
Test compounds supplied in DMSO were diluted into DMSO at 500 times the desired final concentrations before dilution into culture media to 2 times final concentrations. Equal volumes of 2× compounds were added to the cells in 96 well plates and incubated at 37° C. for 3 days.
After 3 days plates were equilibrated to room temperature and equal volume of CellTiter-Glow Reagent (Promega) was added to the culture wells. The plates were agitated briefly and luminescent signal was measured with luminometer. The percent inhibition of the signal seen in cells treated with DMSO alone vs. cells treated with control compound was calculated and used to determine EC50 values (i.e., the concentration of a test compound that is required to obtain 50% of the maximum effect in the cells) for tested compounds, as shown in Example 763.

HEL 92.1.7 cells = assay: Cell proliferation assay (CellTiter-Glo), HEL 92.1.7; assay type: cell-based; conditions: Homo sapiens
Outline: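 CellTiter-Glo luminescence was read after 3-day compound exposure at 37 °C of cells plated at 1000/well in RPMI1640 with 10% FBS. Signal was normalised between DMSO-treated and control-compound-treated wells. EC50 is the concentration giving 50% of maximal effect.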

KDR kinase = KDR kinase (Homo sapiens, UniProt P35968); assay: KDR AlphaScreen assay; conditions: KDR IC50 (μM)
Chain of KDR kinase (P35968 20-1356): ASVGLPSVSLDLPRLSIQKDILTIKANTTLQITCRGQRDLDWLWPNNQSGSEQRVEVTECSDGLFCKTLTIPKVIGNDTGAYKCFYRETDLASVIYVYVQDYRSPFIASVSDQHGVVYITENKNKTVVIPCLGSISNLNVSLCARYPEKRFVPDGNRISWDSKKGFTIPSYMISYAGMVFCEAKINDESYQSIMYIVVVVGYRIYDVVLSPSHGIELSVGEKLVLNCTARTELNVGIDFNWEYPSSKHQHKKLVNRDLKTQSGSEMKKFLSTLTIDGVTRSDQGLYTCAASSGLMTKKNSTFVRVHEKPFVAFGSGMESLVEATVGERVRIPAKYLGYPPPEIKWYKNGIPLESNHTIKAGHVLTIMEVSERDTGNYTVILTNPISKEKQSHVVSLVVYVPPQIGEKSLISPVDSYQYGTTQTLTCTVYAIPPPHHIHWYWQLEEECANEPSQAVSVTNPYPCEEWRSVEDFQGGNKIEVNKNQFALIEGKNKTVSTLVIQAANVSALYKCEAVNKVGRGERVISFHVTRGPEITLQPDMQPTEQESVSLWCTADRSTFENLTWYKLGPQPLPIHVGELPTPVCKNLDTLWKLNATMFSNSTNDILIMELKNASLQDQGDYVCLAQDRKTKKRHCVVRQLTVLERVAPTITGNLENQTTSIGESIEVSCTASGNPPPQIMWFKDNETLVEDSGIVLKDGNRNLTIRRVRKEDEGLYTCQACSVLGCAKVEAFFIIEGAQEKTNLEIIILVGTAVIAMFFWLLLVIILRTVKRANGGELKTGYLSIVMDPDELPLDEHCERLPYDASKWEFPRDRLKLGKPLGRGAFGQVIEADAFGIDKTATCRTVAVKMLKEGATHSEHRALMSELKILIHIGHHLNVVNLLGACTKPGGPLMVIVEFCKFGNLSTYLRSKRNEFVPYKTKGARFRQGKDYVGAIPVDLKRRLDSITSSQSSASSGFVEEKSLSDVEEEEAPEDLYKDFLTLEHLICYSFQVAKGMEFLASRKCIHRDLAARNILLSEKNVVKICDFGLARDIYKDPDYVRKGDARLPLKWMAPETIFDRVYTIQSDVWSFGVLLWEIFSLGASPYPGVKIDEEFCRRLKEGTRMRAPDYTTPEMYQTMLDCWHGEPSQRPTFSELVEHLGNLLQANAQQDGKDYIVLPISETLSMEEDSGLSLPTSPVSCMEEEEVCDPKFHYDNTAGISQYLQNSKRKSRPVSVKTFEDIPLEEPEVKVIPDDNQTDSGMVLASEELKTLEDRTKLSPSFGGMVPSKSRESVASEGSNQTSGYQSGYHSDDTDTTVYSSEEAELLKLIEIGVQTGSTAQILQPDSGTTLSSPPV

Chain of Pim2 kinase (Q9P1W9 whole entry): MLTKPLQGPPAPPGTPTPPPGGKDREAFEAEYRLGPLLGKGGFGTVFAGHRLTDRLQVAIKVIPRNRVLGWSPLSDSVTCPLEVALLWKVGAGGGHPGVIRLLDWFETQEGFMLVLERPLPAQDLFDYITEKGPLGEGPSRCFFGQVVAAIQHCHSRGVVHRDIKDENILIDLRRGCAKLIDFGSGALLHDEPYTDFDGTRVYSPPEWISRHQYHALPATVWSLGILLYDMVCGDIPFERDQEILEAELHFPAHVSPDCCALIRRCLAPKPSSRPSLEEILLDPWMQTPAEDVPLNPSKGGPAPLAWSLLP
Chain of Pim1 kinase (P11309 whole entry): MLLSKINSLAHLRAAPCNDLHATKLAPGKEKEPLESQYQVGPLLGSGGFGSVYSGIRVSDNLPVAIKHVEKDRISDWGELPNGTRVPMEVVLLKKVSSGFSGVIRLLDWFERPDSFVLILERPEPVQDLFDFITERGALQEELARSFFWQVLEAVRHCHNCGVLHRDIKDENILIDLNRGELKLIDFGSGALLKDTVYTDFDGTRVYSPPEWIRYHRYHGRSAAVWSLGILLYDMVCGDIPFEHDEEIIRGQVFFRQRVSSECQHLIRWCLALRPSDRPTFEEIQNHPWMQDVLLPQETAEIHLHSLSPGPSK

Row | SMILES | IC50 (Pim3 kinase; read-out: IC50 (μM) PIM3) [µM] | IC50 (Pim1 kinase; read-out: IC50 (μM) PIM1) [µM] | IC50 (Pim2 kinase; read-out: IC50 (μM) PIM2) [µM] | IC50 [1] [µM] | EC50 (PC3 cells) [µM] | EC50 (HEL 92.1.7 cells; read-out: EC50 (μM) HEL 92.1.7) [µM] | IC50 (KDR kinase) [µM] | EC50 (HEL 92.1.7 cells; read-out: HEL 92.1.7 EC50) [µM] | IC50 (Pim3 kinase; read-out: PIM3 IC50) [µM] | IC50 (Pim1 kinase; read-out: PIM1 IC50) [µM] | IC50 (Pim2 kinase; read-out: PIM2 IC50) [µM]
1 | Nc1nc(N)c(C(=O)Nc2ccncc2N2CCCCC2)nc1Cl [Example 120, 3,5-diamino-6-chloro-N-(3-piperidin-1-ylpyridin-4-yl)-pyrazine-2-carboxamide] | < 1 | < 1 | 1 to 10 | 1 to 10 | 1 to 5 | – | – | – | – | – | –
2 | Nc1nccnc1C(=O)Nc1ccncc1N1CCCCC1 [Example 122, 3-amino-N-(3-piperidin-1-yl-pyridin-4-yl)pyrazine-2-carbox-amide] | 1 to 10 | < 1 | 1 to 10 | < 1 | < 1 | – | – | – | – | – | –
3 | Nc1nccnc1C(=O)Nc1cnccc1N1CCC(N)CC1 [Example 193, 3-amino-N-[4-(4-aminopiperidin-1-yl)pyridin-3-yl]pyrazine-2-carboxamide] | < 1 | < 1 | 1 to 10 | < 1 | < 1 | – | – | – | – | – | –
4 | Nc1nccnc1C(=O)Nc1cc(-c2ccn[nH]2)ccc1N1CCC(N)CC1 [Example 207, 3-amino-N-[2-(4-aminopiperidin-1-yl)-5-(1H-pyrazol-5-yl)phenyl]pyrazine-2-carbox-amide] | < 1 | < 1 | 10 to 25 | – | 5 to 10 | – | – | – | – | – | –
5 | Nc1nccnc1C(=O)Nc1cc(F)ccc1N1CCC(N)CC1 [Example 208, 3-amino-N-[2-(4-aminopiperidin-1-yl)-5-fluorophenyl]pyrazine-2-carboxamide] | < 1 | < 1 | 1 to 10 | – | < 1 | – | – | – | – | – | –
6 | Nc1nccnc1C(=O)Nc1c(F)cccc1N1CCC(N)CC1 [Example 209, 3-amino-N-[2-(4-aminopiperidin-1-yl)-6-fluorophenyl]pyrazine-2-carboxamide] | > 25 | 10 to 25 | > 25 | – | 1 to 5 | – | – | – | – | – | –
7 | Nc1nccnc1C(=O)Nc1ccc(F)cc1N1CCC(N)CC1 [Example 210, 3-amino-N-[2-(4-aminopiperidin-1-yl)-4-fluorophenyl]pyrazine-2-carboxamide] | < 1 | < 1 | 1 to 10 | – | < 1 | – | – | – | – | – | –
8 | Nc1nc(N)c(-c2ccccc2C(F)(F)F)nc1C(=O)Nc1cnccc1N1CCCC(N)C1 (stereo not shown) [Example 341, 3,5-diamino-6-(2-trifluoro-methyl-phenyl)-pyrazine-2-carboxylic acid (3-amino-3,4,5,6-tetrahydro-2H-[1,4′]bi-pyridinyl-3′-yl)-amide] | < 1 | < 1 | < 1 | < 1 | – | 1 to 5 | 1 to 10 | – | – | – | –
9 | Nc1nc(N)c(-c2ccccc2Cl)nc1C(=O)Nc1cnccc1N1CCCC(N)C1 (stereo not shown) [Example 342, 3,5-diamino-6-(2-chloro-phenyl)-pyrazine-2-carboxylic acid (3-amino-3,4,5,6-tetra-hydro-2H-[1,4′]bipyridinyl-3′-yl)-amide] | < 1 | < 1 | < 1 | 1 to 10 | – | < 1 | 1 to 10 | – | – | – | –
10 | Nc1nc(N)c(-c2ccccc2F)nc1C(=O)Nc1cnccc1N1CCCC(N)C1 (stereo not shown) [Example 343, 3,5-diamino-6-(2-fluoro-phenyl)-pyrazine-2-carboxylic acid (3-amino-3,4,5,6-tetra-hydro-2H-[1,4′]bipyridinyl-3′-yl)-amide] | < 1 | < 1 | < 1 | 1 to 10 | – | < 1 | 1 to 10 | – | – | – | –
11 | COc1ccccc1-c1nc(C(=O)Nc2cnccc2N2CCCC(N)C2)c(N)nc1N (stereo not shown) [Example 344, 3,5-diamino-6-(2-methoxy-phenyl)-pyrazine-2-carboxylic acid (3-amino-3,4,5,6-tetra-hydro-2H-[1,4′]bipyridinyl-3′-yl)-amide] | < 1 | < 1 | < 1 | 10 to 25 | – | > 10 | > 25 | – | – | – | –
12 | COc1ccc(F)c(-c2cnc(N)c(C(=O)Nc3ccccc3N3CCC(N)CC3)n2)c1 [Example 393, 3-amino-6-(2-fluoro-5-methoxy-phenyl)-pyrazine-2-carboxylic acid [2-(4-amino-piperidin-1-yl)-phenyl]-amide] | < 1 | < 1 | < 1 | – | 1 to 5 | – | – | – | – | – | –
13 | COc1cc(-c2cnc(N)c(C(=O)Nc3ccccc3N3CCNCC3)n2)cc(OC)c1OC [Example 395, 3-amino-6-(3,4,5-trimethoxy-phenyl)-pyrazine-2-carboxylic acid (2-piperazin-1-yl-phenyl)-amide] | 1 to 10 | < 1 | > 25 | – | 1 to 5 | – | – | – | – | – | –
14 | COc1ccc(F)c(-c2cnc(N)c(C(=O)Nc3ccccc3N3CCNCC3)n2)c1 [Example 396, 3-amino-6-(2-fluoro-5-methoxy-phenyl)-pyrazine-2-carboxylic acid (2-piperazin-1-yl-phenyl)-amide] | < 1 | < 1 | 1 to 10 | – | 1 to 5 | – | – | – | – | – | –
15 | Nc1ncc(-c2ccccc2)nc1C(=O)Nc1ccccc1N1CCC(N)CC1 [Example 397, 3-amino-6-phenyl-pyrazine-2-carboxylic acid [2-(4-amino-piperidin-1-yl)-phenyl]-amide] | < 1 | < 1 | – | – | < 1 | – | – | – | – | – | –
16 | Nc1cc(Cl)c(-c2ccc(N)c(C(=O)Nc3cnccc3N3CCC[C@H](N)C3)n2)cn1 [Example 410, 5,6′-diamino-4′-chloro-[2,3′]bi-pyridinyl-6-carboxylic acid ((S)-3-amino-3,4,5,6-tetrahydro-2H-[1,4′]bipyridinyl-3′-yl)-amide] | < 1 | < 1 | < 1 | 1 to 10 | – | 1 to 5 | > 25 | – | – | – | –
17 | Nc1ccc(-c2ccc(N)c(C(=O)Nc3cnccc3N3CCC[C@H](N)C3)n2)cn1 [Example 418, 5,6′-diamino-[2,3′]bipyridinyl-6-carboxylic acid ((S)-3-amino-3,4,5,6-tetrahydro-2H-[1,4′]bi-pyridinyl-3′-yl)-amide] | < 1 | < 1 | < 1 | 10 to 25 | – | 1 to 5 | > 25 | – | – | – | –
18 | Nc1ccc(-c2ccc(F)cc2F)nc1C(=O)Nc1cnccc1N1CCC[C@H](N)C1 [Example 431, 3-amino-6-(2,4-difluoro-phenyl)-pyridine-2-carboxylic acid ((S)-3-amino-3,4,5,6-tetrahydro-2H-[1,4′]bipyridinyl-3′-yl)-amide] | < 1 | < 1 | < 1 | 1 to 10 | – | 1 to 5 | > 25 | – | – | – | –
19 | Nc1ncc(-c2ccccc2)nc1C(=O)Nc1[nH]c(=O)ncc1N1CCCCC1 [Example 590, 3-amino-6-phenyl-pyrazine-2-carboxylic acid (2-oxo-5-piperidin-1-yl-2,3-dihydro-pyrimidin-4-yl)-amide] | – | – | – | 1 to 10 | – | – | < 1 | 1 to 5 | < 1 | < 1 | < 1

Reference: US20140249135A1, “PIM KINASE INHIBITORS AND METHODS OF THEIR USE” (NOVARTIS AG, priority 2007, published 2014)
